ChEMBL document CHEMBL1201862, “PubChem BioAssay data set” (2004)
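Assay format: 96-well plates, 48-hour exposure. GI50 marks 50% less growth.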 Active and inactive are the calls of the source. No stated cut-off is given here; in the data, active = GI50 up to about 1.1 µM and inactive = higher.

How the values were obtained:
Test in all cases: inhibition of tumour cell growth, NCI panel, 48 h
786-0 = tested on: 786-0
A498 = tested on: A498
A549 = tested on: A549
ACHN = tested on: ACHN
CAKI-1 = tested on: CAKI-1
CCRF-CEM = tested on: CCRF-CEM
COLO 205 = tested on: COLO 205
DLD-1 = tested on: DLD-1
DMS-114 = tested on: DMS-114
DMS-273 = tested on: DMS-273
EKVX = tested on: EKVX
HCC 2998 = tested on: HCC 2998
HCT-116 = tested on: HCT-116
HL-60 = tested on: HL-60
HOP-18 = tested on: HOP-18
HOP-62 = tested on: HOP-62
HOP-92 = tested on: HOP-92
HT-29 = tested on: HT-29
IGROV-1 = tested on: IGROV-1
K562 = tested on: K562
KM-20L2 = tested on: KM-20L2
KM12 = tested on: KM12
LOX IMVI = tested on: LOX IMVI
LXFL 529 = tested on: LXFL 529
M14 = tested on: M14
M19-MEL = tested on: M19-MEL
MOLT-4 = tested on: MOLT-4
Malme-3M = tested on: Malme-3M
NCI-H226 = tested on: NCI-H226
NCI-H23 = tested on: NCI-H23
NCI-H522 = tested on: NCI-H522
OVCAR-3 = tested on: OVCAR-3
OVCAR-4 = tested on: OVCAR-4
OVCAR-5 = tested on: OVCAR-5
OVCAR-8 = tested on: OVCAR-8
RXF 393 = tested on: RXF 393
RXF 631 = tested on: RXF 631
SF-268 = tested on: SF-268
SF-295 = tested on: SF-295
SF-539 = tested on: SF-539
SK-MEL-28 = tested on: SK-MEL-28
SK-MEL-2 = tested on: SK-MEL-2
SK-MEL-5 = tested on: SK-MEL-5
SK-OV-3 = tested on: SK-OV-3
SN12C = tested on: SN12C
SNB-19 = tested on: SNB-19
SNB-75 = tested on: SNB-75
SNB-78 = tested on: SNB-78
SR = tested on: SR
SW-620 = tested on: SW-620
TK-10 = tested on: TK-10
U-251 = tested on: U-251
UACC-257 = tested on: UACC-257
UACC-62 = tested on: UACC-62
UO-31 = tested on: UO-31
XF498 = tested on: XF498

Measured: GI50

CC1=CC=C2C(C)(C)CC[C@@H]3OC(=O)[C@H]1[C@]23C
inactive: 786-0 > 100 µM | A498 > 100 µM | A549 > 100 µM | ACHN > 100 µM | CAKI-1 > 100 µM | CCRF-CEM > 100 µM | COLO 205 > 100 µM | DLD-1 > 100 µM | DMS-114 > 100 µM | DMS-273 > 100 µM | EKVX > 100 µM | HCC 2998 > 100 µM | HCT-116 > 100 µM | HL-60 > 100 µM | HOP-18 > 100 µM | HOP-62 > 100 µM | HOP-92 > 100 µM | HT-29 > 100 µM | IGROV-1 > 100 µM | K562 > 100 µM | KM-20L2 > 100 µM | KM12 > 100 µM | LOX IMVI > 100 µM | LXFL 529 > 100 µM | M14 > 100 µM | M19-MEL > 100 µM | MOLT-4 > 100 µM | Malme-3M > 100 µM | NCI-H226 > 100 µM | NCI-H23 > 100 µM | NCI-H522 > 100 µM | OVCAR-3 > 100 µM | OVCAR-4 > 100 µM | OVCAR-5 > 100 µM | OVCAR-8 > 100 µM | RXF 393 > 100 µM | RXF 631 > 100 µM | SF-268 > 100 µM | SF-295 > 100 µM | SF-539 > 100 µM | SK-MEL-28 > 100 µM | SK-MEL-2 15.5 µM | SK-MEL-5 > 100 µM | SK-OV-3 > 100 µM | SN12C > 100 µM | SNB-19 > 100 µM | SNB-75 > 100 µM | SNB-78 37.1 µM | SR > 100 µM | SW-620 > 100 µM | TK-10 > 100 µM | U-251 > 100 µM | UACC-257 > 100 µM | UACC-62 > 100 µM | UO-31 > 100 µM | XF498 > 100 µM
